One experiment deals with catena cells. Nature of the experiment: Morphological observation of treated catenae under the microscope. Format: cell-based. The following applies: for morphological change of treated catenae: microscope observation; for cells seen in cultures treated with high concentrations of compounds: 100 μM (rapamycin 25 μM, lovastatin acid 50 μM), cells re-entered the cell cycle without drug.

The test system of another experiment is Ovcar3-GTL catenae. Nature of the experiment: Ovcar3-GTL catena drug sensitivity / proliferation screen (alamarBlue, 384-well). The following applies: for Increase in Resistance Day6/Day 1: ratio of IC50 day 6 to day 1, Ovcar3-GTL catenae; for Increased Resistance of catena: catena with established glycocalyx versus monolayers. In general terms: The colour change of resazurin is a common sign of viable cells or microbes.

Experiment [1] has as its system established tumor spheroids. Nature of the experiment: Established tumor spheroid drug sensitivity (alamarBlue).
Experiment [2] deals with Ovcar5 monolayer (mesenchymal) cells. The experiment in a line: Ovarian cancer monolayer drug sensitivity (alamarBlue), Ovcar5. Format: cell-based. The following applies: 25 cells seeded; drugs added 4 days after seeding; read-out: IC50 (μM) Ovcar5 monolayer. The method, then:
(§1) The foregoing total of 29 compounds were tested in parallel on ovarian cancer monolayer cells by seeding 100 Ovcar3 monolayer (epithelial) or 25 Ovcar5 monolayer (mesenchymal) cells in 384-well plates. Drugs were added 4 days after cell seeding and cell viability was analyzed by alamarBlue staining. In general, catena cells with an established glycocalyx were on average 4-8 fold more resistant to these compounds when compared to monolayers. […]

Experiment [3] deals with Ovcar3 monolayer (epithelial) cells. Nature of the experiment: Ovarian cancer monolayer drug sensitivity (alamarBlue), Ovcar3. Format: cell-based. The following applies: 100 cells seeded; drugs added 4 days after seeding; read-out: IC50 (μM) Ovcar3 monolayer. How it is done: as §1
Where [4] appears, read: 24 h, read-out: IC50 (μM) Addition on Day 1, Ovcar3-GTL catenae, compound added one day after seeding (cells predominantly lacking a glycocalyx).
Setting [5] is: 144 h, read-out: IC50 (μM) Addition on Day 6, Ovcar3-GTL catenae, compound added six days after seeding (established or substantial glycocalyx).
Setting [6] is: read-out: IC50 (μM) Addition on Day 1, Ovcar3-GTL catenae, compound added one day after seeding (cells predominantly lacking a glycocalyx).
The mark [7] stands for this setting: read-out: IC50 (μM) Addition on Day 6, Ovcar3-GTL catenae, compound added six days after seeding (established or substantial glycocalyx).
[8] abbreviates: read-out: IC50 (μM) No coat, pathway-specific inhibitors, catena cells without glycocalyx coat.
The mark [9] stands for this setting: read-out: IC50 (μM) With coat, pathway-specific inhibitors, catena cells with glycocalyx coat.
Where [10] appears, read: LOPAC 1280 HTS, compound at 0.2 μM.
Setting [11] is: 24 h, read-out: IC50 (μM) Addition on Day 1.
[12] abbreviates: 144 h, read-out: IC50 (μM) Addition on Day 6.

This note sets out measurements from patent publication US20150030583A1, “Methods of Treating Serosal Cancer” (SLOAN KETTERING INSTITUTE FOR CANCER RESEARCH, priority 2011, published 2015).

Read-outs that look alike come from different tables or passages of the source.

Consider `O=c1[nH]cc(F)c(=O)[nH]1` [5-FU, 5-fluorouracil], for which, in the experiment on catena cells, the “morphological change of treated catenae” value was “formation of fused chains”. The results for the IC50 in the experiment with Ovcar3-GTL catenae (setting [4]) and in the experiment on Ovcar3-GTL catenae (setting [5]) were 3000 nM and more than 100000 nM, respectively. The “Increase in Resistance Day6/Day 1” value in the experiment with Ovcar3-GTL catenae worked out at 33 fold.
With `Nc1ccn([C@@H]2O[C@H](CO)[C@@H](O)[C@@H]2O)c(=O)n1` [Ara-C], the “cells seen in cultures treated with high concentrations of compounds” value (shortened to “cells seen in cultures treated”) in the experiment with catena cells is reported as “live, large single cells, i.e., cells arrested at mitosis”. Also, the “Increase in Resistance Day6/Day 1” value in the experiment on Ovcar3-GTL catenae is 2,000 fold. For the same compound, the IC50 in the experiment with Ovcar3-GTL catenae (setting [6]) was 50 nM; in the experiment on Ovcar3-GTL catenae (setting [7]) it was more than 100000 nM.
`O=C(CCCCCCC(=O)Nc1ccccc1)NO` [SAHA, Vorinostat]: the “morphological change of treated catenae” value in the experiment on catena cells is “formation of tight spheroids”.
As for `N#CC(=C(/N)Sc1ccccc1N)/C(C#N)=C(\N)Sc1ccccc1N` [U0126], the IC50 in the experiment on Ovcar3-GTL catenae (read-out: IC50 (μM) No coat) is 13400 nM; in the experiment on Ovcar3-GTL catenae (read-out: IC50 (μM) With coat), more than 25000 nM.
For `Cc1cc(Nc2cc(N3CCN(C)CC3)nc(Sc3ccc(NC(=O)C4CC4)cc3)n2)[nH]n1` [VX-680 (Tozasertib), Tozasertib], the IC50 in the experiment with Ovcar3-GTL catenae (setting [8]) was 50 nM; with Ovcar3-GTL catenae (setting [9]), more than 25000 nM.
Consider `Clc1ccc(Nc2nnc(Cc3ccncc3)c3ccccc23)cc1` [Vatalanib], for which the IC50 in the experiment with Ovcar3-GTL catenae (setting [8]) and in the experiment on Ovcar3-GTL catenae (setting [9]) was more than 25000 nM throughout.
With `COc1cc2c(Oc3ccc(NC(=O)C4(C(=O)Nc5ccc(F)cc5)CC4)cc3F)ccnc2cc1OCCCN1CCOCC1` [XL880 (GSK1363089EXEL-2880)], the IC50 was determined as 50 nM in the experiment on Ovcar3-GTL catenae (setting [8]) and 13400 nM in the experiment on Ovcar3-GTL catenae (setting [9]).
With `C[C@@H](N)[C@H]1CC[C@H](C(=O)Nc2ccncc2)CC1` [Y27632], the IC50 is more than 100000 nM in the experiment on Ovcar3-GTL catenae (setting [4]), more than 100000 nM in the experiment with Ovcar3-GTL catenae (setting [5]), more than 25000 nM with Ovcar3-GTL catenae (setting [8]) and more than 25000 nM in the experiment on Ovcar3-GTL catenae (setting [9]).
Take `FC(F)c1nc2ccccc2n1-c1nc(N2CCOCC2)nc(N2CCOCC2)n1` [ZSTK474]: the Fold resistance with Ovcar3-GTL catenae (increased resistance of catena cells with glycocalyx coat versus no coat) is given as more than 8 fold. Besides, the IC50 was 3140 nM with Ovcar3-GTL catenae (setting [8]) and more than 25000 nM in the experiment with Ovcar3-GTL catenae (setting [9]).
`CC(C)C[C@H](NC(=O)[C@H](Cc1ccccc1)NC(=O)c1cnccn1)B(O)O` [bortezomib]: the IC50 with Ovcar3-GTL catenae (setting [4]) and with Ovcar3-GTL catenae (setting [5]) was 13 nM each time.
Turning to `C[C@H]1CCC/C=C/[C@@H]2C[C@H](O)C[C@H]2[C@H](O)/C=C/C(=O)O1` [brefeldin A], the “toxicity to catena cells with a glycocalyx coat” value (from here on “toxicity to catena cells”) with Ovcar3-GTL catenae (setting [10]) is “exert toxicity”.
Turning to `COc1cc2c(c(OC)c1OC)-c1ccc(OC)c(=O)cc1[C@@H](NC(C)=O)CC2` [colchicine], the “toxicity to catena cells” value in the experiment on Ovcar3-GTL catenae (setting [10]) is given as “exert toxicity”.
`C/C1=C/C[C@@H](/C(C)=C/c2csc(C)n2)OC(=O)C[C@H](O)C(C)(C)C(=O)[C@H](C)[C@@H](O)[C@@H](C)CCC1` [dEpoB]: in the experiment on Ovcar3-GTL catenae, the “Increase in Resistance Day6/Day 1” value was 250,000 fold. Also, the IC50 with Ovcar3-GTL catenae (setting [6]) is 0.4 nM; in the experiment on Ovcar3-GTL catenae (setting [7]), more than 100000 nM.
Regarding `Cc1nc(Nc2ncc(C(=O)Nc3c(C)cccc3Cl)s2)cc(N2CCN(CCO)CC2)n1` [dasatinib], the IC50 with Ovcar3-GTL catenae (setting [4]) and with Ovcar3-GTL catenae (setting [5]) was more than 100000 nM each time.
Consider `COc1cccc2c1C(=O)c1c(O)c3c(c(O)c1C2=O)C[C@@](O)(C(C)=O)C[C@@H]3O[C@H]1C[C@H](N)[C@H](O)[C@H](C)O1` [daunarubacin], for which the “Increase in Resistance Day6/Day 1” value in the experiment with Ovcar3-GTL catenae stood at 133 fold. The results for the IC50 with Ovcar3-GTL catenae (setting [6]) and in the experiment with Ovcar3-GTL catenae (setting [7]) were 6 nM and 800 nM, respectively.
With `COc1cc2c(cc1OC)[C@@H]1C(=O)c3ccc4c(c3O[C@@H]1CO2)C=CC(C)(C)O4` [deguelin], the values for the IC50 (in experiment [1] (read-out: spheroid IC50); in the experiment on Ovcar3-GTL catenae (setting [11]); with Ovcar3-GTL catenae (setting [12])) were 400 nM, 25 nM and 25 nM, respectively. Moreover, in experiment [1] (spheroid versus catena IC50), the “additional resistance conferred by spheroid formation” value stood at 15 fold.
For the compound `c1ccc2c(c1)[I+]c1ccccc1-2` [diphenyleneiodonium chloride], the “toxicity to catena cells” value with Ovcar3-GTL catenae was “exert toxicity”.
For the compound `COc1cccc2c1C(=O)c1c(O)c3c(c(O)c1C2=O)C[C@@](O)(C(=O)CO)C[C@@H]3O[C@H]1C[C@H](N)[C@H](O)[C@H](C)O1` [doxorubicin], the IC50 in the experiment on Ovcar3-GTL catenae (setting [4]) is 25 nM; in the experiment on Ovcar3-GTL catenae (setting [5]), 800 nM. Moreover, the “Increase in Resistance Day6/Day 1” value in the experiment with Ovcar3-GTL catenae is listed as 32 fold.
With `COc1cc([C@@H]2c3cc4c(cc3[C@@H](O[C@@H]3O[C@@H]5CO[C@@H](C)O[C@H]5[C@H](O)[C@H]3O)[C@H]3COC(=O)[C@H]23)OCO4)cc(OC)c1O` [etoposide], the IC50 in the experiment with Ovcar3-GTL catenae (setting [4]) came to 400 nM; with Ovcar3-GTL catenae (setting [5]), 50000 nM. Besides, in the experiment with Ovcar3-GTL catenae, the “Increase in Resistance Day6/Day 1” value was determined as 125 fold.
In the case of `C/C(=C\c1csc(C)n1)[C@@H]1C/C=C(/C(F)(F)F)C/C=C/[C@H](C)[C@H](O)[C@@H](C)C(=O)C(C)(C)[C@@H](O)CC(=O)O1` [fludelone], the IC50 in experiment [2] is 0.0004 µM; in experiment [3], 0.0008 µM; in the experiment with Ovcar3-GTL catenae (setting [6]), not above 0.012 nM; in the experiment on Ovcar3-GTL catenae (setting [7]), more than 100000 nM. In addition, the “cells seen in cultures treated” value in the experiment on catena cells is “live, large single cells, i.e., cells arrested at mitosis”. Moreover, the “Increased Resistance of catena” value in the experiment with Ovcar3-GTL catenae was 125,000 fold.
As to `CC[C@H](C)C(=O)O[C@H]1C[C@@H](C)C=C2C=C[C@H](C)[C@H](CC[C@@H](O)C[C@@H](O)CC(=O)O)[C@H]21` [lovastatin acid], in the experiment on catena cells, the “cells seen in cultures treated” value is “live, large single cells, i.e., cells arrested at mitosis”. Also, the IC50 with Ovcar3-GTL catenae (setting [4]) was determined as 25000 nM; in the experiment on Ovcar3-GTL catenae (setting [5]), 50000 nM. For the same compound, the “Increase in Resistance Day6/Day 1” value in the experiment on Ovcar3-GTL catenae amounted to 2 fold.
Consider `CO[C@@]12[C@H](COC(N)=O)C3=C(C(=O)C(C)=C(N)C3=O)N1C[C@@H]1N[C@@H]12` [mitomycin-C], for which, in the experiment with Ovcar3-GTL catenae, the “Increase in Resistance Day6/Day 1” value is given as 60 fold. In addition, the IC50 came to 50 nM in the experiment on Ovcar3-GTL catenae (setting [6]) and 3000 nM in the experiment on Ovcar3-GTL catenae (setting [7]).
As to `CO[C@H]1C[C@@H]2CC[C@@H](C)[C@@](O)(O2)C(=O)C(=O)N2CCCC[C@H]2C(=O)O[C@H]([C@H](C)C[C@@H]2CC[C@@H](O)[C@H](OC)C2)CC(=O)[C@H](C)/C=C(\C)[C@@H](O)[C@@H](OC)C(=O)[C@H](C)C[C@H](C)/C=C/C=C/C=C/1C` [rapamycin], the IC50 in the experiment with Ovcar3-GTL catenae (setting [4]) amounted to 12000 nM; with Ovcar3-GTL catenae (setting [5]), 25000 nM. Further, the “Increase in Resistance Day6/Day 1” value with Ovcar3-GTL catenae is 2 fold.
For the compound `CC[C@@]1(O)C(=O)OCc2c1cc1n(c2=O)Cc2cc3c(CN(C)C)c(O)ccc3nc2-1` [topotecan], in the experiment on catena cells, the “cells seen in cultures treated” value is reported as “live, large single cells, i.e., cells arrested at mitosis”. For the same compound, the IC50 in the experiment with Ovcar3-GTL catenae (setting [4]) is 20 nM; in the experiment on Ovcar3-GTL catenae (setting [5]), more than 100000 nM. Also, the “Increase in Resistance Day6/Day 1” value with Ovcar3-GTL catenae is 5,000 fold.
Regarding `COc1ccc(CCN(C)CCCC(C#N)(c2ccc(OC)c(OC)c2)C(C)C)cc1OC` (stereo not shown) [verapamil], the IC50 with Ovcar3-GTL catenae (setting [11]) and in the experiment on Ovcar3-GTL catenae (setting [12]) was more than 100000 nM in each case.
As to iso-oxazole-fludelone, the IC50 was 0.012 µM in experiment [2], 0.05 µM in experiment [3], 3 nM in the experiment with Ovcar3-GTL catenae (setting [6]) and more than 100000 nM with Ovcar3-GTL catenae (setting [7]). The “cells seen in cultures treated” value with catena cells was “live, large single cells, i.e., cells arrested at mitosis”. Moreover, the “Increased Resistance of catena” value in the experiment with Ovcar3-GTL catenae is 2,000 fold. For the same compound, the “Increase in Resistance Day6/Day 1” value in the experiment with Ovcar3-GTL catenae is on record as 33,333 fold.

Usually IC50 stands for the concentration that inhibits the measured activity by half.
